Measurements reported in BigSolDB 2.1.

CS(=O)(=O)c1ccc(C(=O)C2C(=O)CCCC2=O)c([N+](=O)[O-])c1
solubility (mole fraction)
Conditions	283.15 K	288.15 K	293.15 K	298.15 K	303.15 K	308.15 K	313.15 K	318.15 K	323.15 K
in 2-pentanol	0.000571	0.00081	0.00114	0.00158	0.00216	0.00294	0.00396	0.00561	0.00671
in MTBE	0.000245	0.000282	0.000322	0.000367	0.000397	0.000473	0.000536	0.000606	0.000684
in cyclohexane	0.000321	0.000402	0.000486	0.000616	0.000733	0.000888	0.00104	0.00122	0.00168
in ethanol	0.0023	0.00264	0.00316	0.00386	0.00455	0.00535	0.00627	0.00734	0.00857
in ethyl acetate	0.000565	0.000707	0.000879	0.00109	0.00132	0.00163	0.00198	0.00239	0.00287
in methanol	0.00351	0.00401	0.00457	0.00518	0.00567	0.00663	0.00748	0.00842	0.00946
